Reference: patent US20250195457A1, “PHARMACEUTICAL COMPOSITION FOR TREATMENT OF PARKINSON'S DISEASE” (Eisai R&D Management Co., Ltd., priority 2022, published 2025)

Tests used:
various animal models = conditions: cited from earlier work
mouse kindling model = conditions: anti-seizure effect (ED50) in mouse kindling model versus neurotoxic effect (TD50) in rotarod test; compared with a control compound; cited from earlier work
[1] = system: Parkinson's disease model cynomolgus monkeys (MPTP); assay: Test Example 1: NDSs after administration of Compound (I) alone in MPTP Parkinson's disease model monkeys; format: in vivo; set-up: key to Subgroup 2: Specific motor functions score: specific motor functions subscore, range 0-21
Experimental: The therapeutic effect of Compound (I) on Parkinson's disease was examined using Parkinson's disease model animals which are produced by administering MPTP (1-methyl-4-phenyl-1,2,3,6-tetrahydropyridine).
MPTP was administered to male cynomolgus monkeys at the age of 4 to 5 to make Parkinson's disease model cynomolgus monkeys. MPTP was additionally administered to animals with neurologic deficit scores (Neurological deficit scores: NDSs, Schneider et al., “Development of levodopa-induced dyskinesias in parkinsonian monkeys may depend upon rate of symptom onset and/or duration of symptoms”, Brain Res., 2003, 990:38-44.) of less than 25.
Eight Parkinson's disease model cynomolgus monkeys were randomized into 5 groups of approximately equal mean and variance in terms of Parkinson behavior rating (Tremor score) and body weight. On subsequent cycle 2, cycle 3, cycle 4 and cycle 5, the animals were crossed over to receive the other treatments. A wash out period of one week or more was set between each cycle.
By the end of the study, each animal had received all the five treatments. Istradefylline is an adenosine A2A receptor antagonist approved as a drug for improving a wearing off phenomenon in Parkinson's disease being treated with a levodopa-containing preparation in the United States of America and Japan (Patent Literature 4). As a vehicle, an aqueous solution containing 0.43% (w/v) methyl cellulose 400, 10% (v/v) dimethyl sulfoxide (DMSO), and 4.5% (w/v) Cremophor (R) was used.
Before the administration, and 1 hr., 4 hrs., and 24 hrs. after the administration of the test substances, the NDSs of the monkeys were evaluated. The evaluation items are as follows. The behavior evaluation was performed in a blinded manner. The NDSs of the groups were compared using Steel's test. The p-values of less than 0.05 were considered to be statistically significant.
Subgroup 1: generalized behaviors (0-32) • 1.1a Appetite • 0: Normal • 1: Up to 30% food left • 2: Up to 65% food left • 3: Greater than 65% food left • 1.1b Response to offered food • 0: Responds to offered food • 1: Inconsistent response to offered food • 2: Little to no interest in offered food • 1.2 Overall activity • 0: Normal • 1: Mild hypokinesia; decrease in spontaneous movement • 2: Moderate hypokinesia; sparse spontaneous movement • 3: Severe hypokinesia; no spontaneous movement; tends to remain in one place • 1.3 Appearance • 0: Normal • 1: Mild but noticeable decrease in self-maintenance • 2: Moderate decrease in self-maintenance • 3: Severe lack of self-maintenance • 1.4 Posture • 0: Normal • 1: Minor flexing or stooping • 2: Moderate flexing or stooping; head and upper body almost parallel to floor of cage • 3: Severe flexing or stooping; head lowered to feet • 1.5 Balance • 0: Normal • 1: Mild loss on arising or movement • 2: Moderate loss on arising or movement; occasionally falls or supports self to keep from falling • 3: Severe loss of balance; falls • 1.6 Climbing • 0: Climbing observed with no delays in initiation/execution • 1: Mild deficit in ability to climb and support weight • 2: Moderate deficit in ability to climb and support weight; tends to ‘slide down’ • 3: Absence of any climbing behavior • 1.7 Tremor • 0: Absent • 1: Slight and intermittent • 2: Slight and persistent or moderate and intermittent • 3: Moderate/severe and persistent • 1.8 Freezing during movement • 0: Absent • 1: Occasional freezing for brief periods • 2: Occasional freezing for prolonged periods or frequent freezing for brief periods • 3: Prolonged and frequent freezing • 1.9 Facial expression • 0: Normal • 1: Mild hypomimia • 2: Moderate hypomimia • 3: Severe, masked fixed faces • 1.10 Defense reaction • 0: Normal • 1: Mild, noticeable reduction in reaction or slowed reaction, but can be provoked to react • 2: Moderate reduction in reaction; can produce facial display but not body reaction • 3: Little to no response
Subgroup 2: Specific Motor Functions (0-21)

[2] = Compound (I) high dose 50 mg/kg (G4), 1 hr. after administration
[3] = Compound (I) high dose 50 mg/kg (G4), 4 hrs. after administration
[4] = Compound (I) high dose 50 mg/kg (G4), 24 hrs. after administration
[5] = Compound (I) high dose 50 mg/kg (G4), Pre (before administration)
[6] = Compound (I) low dose 5 mg/kg (G2), 1 hr. after administration
[7] = Compound (I) low dose 5 mg/kg (G2), 4 hrs. after administration
[8] = Compound (I) low dose 5 mg/kg (G2), 24 hrs. after administration
[9] = Compound (I) low dose 5 mg/kg (G2), Pre (before administration)
[10] = Compound (I) middle dose 15 mg/kg (G3), 1 hr. after administration
[11] = Compound (I) middle dose 15 mg/kg (G3), 4 hrs. after administration
[12] = Compound (I) middle dose 15 mg/kg (G3), 24 hrs. after administration
[13] = Compound (I) middle dose 15 mg/kg (G3), Pre (before administration)

NS(=O)(=O)N[C@H]1c2c(F)cc(F)cc2CC1(F)F [Compound (I), N-[(1S)-2,2,5,7-tetrafluoro-2,3-dihydro-1H-inden-1-yl]sulfamide]
analgesic effect (various animal models): exhibit an analgesic effect
therapeutic index (TD50/ED50) (mouse kindling model): higher
Subgroup 1: GENERALIZED BEHAVIORS score [1, 2]: 17.1 ± 0.8
Subgroup 2: Specific motor functions score [1, 2]: 12.0 ± 0.5
Total score of NDSs [1, 2]: 29.1 ± 1.3
Tremor score [1, 2]: 1.6 ± 0.2
Subgroup 1: GENERALIZED BEHAVIORS score [1, 3]: 14.8 ± 1.0
Subgroup 2: Specific motor functions score [1, 3]: 9.9 ± 0.5
Total score of NDSs [1, 3]: 24.6 ± 1.3
Tremor score [1, 3]: 1.1 ± 0.1
Subgroup 1: GENERALIZED BEHAVIORS score [1, 4]: 17.3 ± 1.1
Subgroup 2: Specific motor functions score [1, 4]: 12.0 ± 0.6
Total score of NDSs [1, 4]: 29.3 ± 1.6
Tremor score [1, 4]: 1.4 ± 0.2
Subgroup 1: GENERALIZED BEHAVIORS score [1, 5]: 19.0 ± 0.8
Subgroup 2: Specific motor functions score [1, 5]: 13.5 ± 0.4
Total score of NDSs [1, 5]: 32.5 ± 1.1
Tremor score [1, 5]: 2.1 ± 0.1
Subgroup 1: GENERALIZED BEHAVIORS score [1, 6]: 16.1 ± 0.9
Subgroup 2: Specific motor functions score [1, 6]: 11.5 ± 0.6
Total score of NDSs [1, 6]: 27.6 ± 1.5
Tremor score [1, 6]: 1.8 ± 0.2
Subgroup 1: GENERALIZED BEHAVIORS score [1, 7]: 16.0 ± 0.7
Subgroup 2: Specific motor functions score [1, 7]: 12.5 ± 0.3
Total score of NDSs [1, 7]: 28.5 ± 1.0
Tremor score [1, 7]: 1.8 ± 0.2
Subgroup 1: GENERALIZED BEHAVIORS score [1, 8]: 17.1 ± 0.8
Subgroup 2: Specific motor functions score [1, 8]: 11.9 ± 0.4
Total score of NDSs [1, 8]: 29.0 ± 1.0
Tremor score [1, 8]: 2.1 ± 0.1
Subgroup 1: GENERALIZED BEHAVIORS score [1, 9]: 17.4 ± 0.8
Subgroup 2: Specific motor functions score [1, 9]: 13.3 ± 0.5
Total score of NDSs [1, 9]: 30.6 ± 1.1
Tremor score [1, 9]: 2.0 ± 0.0
Subgroup 1: GENERALIZED BEHAVIORS score [1, 10]: 15.5 ± 1.0
Subgroup 2: Specific motor functions score [1, 10]: 12.3 ± 0.5
Total score of NDSs [1, 10]: 27.8 ± 1.5
Tremor score [1, 10]: 1.6 ± 0.2
Subgroup 1: GENERALIZED BEHAVIORS score [1, 11]: 15.0 ± 0.8
Subgroup 2: Specific motor functions score [1, 11]: 11.5 ± 0.4
Total score of NDSs [1, 11]: 26.5 ± 1.0
Tremor score [1, 11]: 1.6 ± 0.2
Subgroup 1: GENERALIZED BEHAVIORS score [1, 12]: 16.8 ± 0.9
Subgroup 2: Specific motor functions score [1, 12]: 12.8 ± 0.3
Total score of NDSs [1, 12]: 29.5 ± 1.1
Tremor score [1, 12]: 1.8 ± 0.2
Subgroup 1: GENERALIZED BEHAVIORS score [1, 13]: 17.3 ± 0.6
Subgroup 2: Specific motor functions score [1, 13]: 12.9 ± 0.4
Total score of NDSs [1, 13]: 30.1 ± 0.9
Tremor score [1, 13]: 2.0 ± 0.0
